Columns and labels:
Conditions in all cases: sulfur source concentration 200 µM; S. cerevisiae S288C/BY sul1Δ sul2Δ soa1Δ with transporter ortholog inserted at SOA1 locus; sulfur-free B medium, 4% glucose, pH 6.5, sole sulfur source
[1] = system: Aspergillus nidulans (IAM 2006)_astA; assay: maximal culture density with compound as sole sulfur source (OD600); higher = better growth
Method: (§1)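 S. cerevisiae sul1Δ sul2Δ soa1Δ strains expressing 20 fungal SOA1 orthologs (or no transporter, 'soa1 del') were grown in liquid sulfur-free B medium, 4% glucose, pH 6.5 (7 mM K2HPO4). The strains were sulfur-starved for 3 days beforehand. Each sulfur compound was the sole sulfur source at 200 µM (sulfate also at 40 mM). OD600 curves of duplicate cultures were averaged and fitted (logistic / Richards, GroFit) to give maximal growth rate, maximal density and lag phase; temperature not stated.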

[2] = system: Aspergillus nidulans_CBF74694; assay: as above
Method: as §1

[3] = system: Aspergillus nidulans_CBF80346; assay: as above
Method: as §1

[4] = system: Aspergillus nidulans_XP_660563; assay: as above
Method: as §1

[5] = system: Aspergillus nidulans_XP_660670; assay: as above
Method: as §1

[6] = system: Aspergillus nidulans_XP_661711; assay: as above
Method: as §1

[7] = system: Aspergillus nidulans_XP_661733; assay: as above
Method: as §1

[8] = system: Aspergillus nidulans_XP_681611; assay: as above
Method: as §1

[9] = system: Fusarium oxysporum_ENH65823; assay: as above
Method: as §1

[10] = system: Metarhizium robertsii_XP_007821441; assay: as above
Method: as §1

[11] = system: Metarhizium robertsii_XP_007822519; assay: as above
Method: as §1

[12] = system: Metarhizium robertsii_XP_007823832; assay: as above
Method: as §1

[13] = system: Ogataea parapolymorpha_XP_013932458; assay: as above
Method: as §1

[14] = system: Ogataea parapolymorpha_XP_013935289; assay: as above
Method: as §1

[15] = system: Ogataea parapolymorpha_XP_013936897; assay: as above
Method: as §1

[16] = system: Saccharomyces cerevisiae_SOA1; assay: as above
Method: as §1

[17] = system: Saccharomyces eubayanus_SOA1; assay: as above
Method: as §1

[18] = system: Saccharomyces eubayanus_SOA2; assay: as above
Method: as §1

[19] = system: Saccharomyces uvarum_SOA1; assay: as above
Method: as §1

[20] = system: Saccharomyces uvarum_SOA2; assay: as above
Method: as §1

soa1 del [21] = assay: as above
Method: as §1

[22] = system: Aspergillus nidulans (IAM 2006)_astA; assay: maximal growth rate with compound as sole sulfur source (OD600 per h); higher = better growth / uptake of the sulfur source
Method: as §1

[23] = system: Aspergillus nidulans_CBF74694; assay: as above
Method: as §1

[24] = system: Aspergillus nidulans_CBF80346; assay: as above
Method: as §1

[25] = system: Aspergillus nidulans_XP_660563; assay: as above
Method: as §1

[26] = system: Aspergillus nidulans_XP_660670; assay: as above
Method: as §1

[27] = system: Aspergillus nidulans_XP_661711; assay: as above
Method: as §1

[28] = system: Aspergillus nidulans_XP_661733; assay: as above
Method: as §1

[29] = system: Aspergillus nidulans_XP_681611; assay: as above
Method: as §1

[30] = system: Fusarium oxysporum_ENH65823; assay: as above
Method: as §1

[31] = system: Metarhizium robertsii_XP_007821441; assay: as above
Method: as §1

[32] = system: Metarhizium robertsii_XP_007822519; assay: as above
Method: as §1

[33] = system: Metarhizium robertsii_XP_007823832; assay: as above
Method: as §1

[34] = system: Ogataea parapolymorpha_XP_013932458; assay: as above
Method: as §1

[35] = system: Ogataea parapolymorpha_XP_013935289; assay: as above
Method: as §1

[36] = system: Ogataea parapolymorpha_XP_013936897; assay: as above
Method: as §1

[37] = system: Saccharomyces cerevisiae_SOA1; assay: as above
Method: as §1

[38] = system: Saccharomyces eubayanus_SOA1; assay: as above
Method: as §1

[39] = system: Saccharomyces eubayanus_SOA2; assay: as above
Method: as §1

[40] = system: Saccharomyces uvarum_SOA1; assay: as above
Method: as §1

[41] = system: Saccharomyces uvarum_SOA2; assay: as above
Method: as §1

soa1 del [42] = assay: as above
Method: as §1

[43] = system: Ogataea parapolymorpha_XP_013935289; assay: lag phase before growth; higher = slower start of growth
Method: as §1

[44] = system: Saccharomyces cerevisiae_SOA1; assay: as above
Method: as §1

[45] = system: Saccharomyces uvarum_SOA2; assay: as above
Method: as §1

## O=S(=O)(O)CCO [Isethionate]
[1]
  maximal culture density: 0.489
[2]
  maximal culture density: 0.195
[3]
  maximal culture density: 0.213
[4]
  maximal culture density: 0.332
[5]
  maximal culture density: 0.232
[6]
  maximal culture density: 0.233
[7]
  maximal culture density: 0.269
[8]
  maximal culture density: 0.373
[9]
  maximal culture density: 0.233
[10]
  maximal culture density: 0.223
[11]
  maximal culture density: 1.59
[12]
  maximal culture density: 0.501
[13]
  maximal culture density: 0.242
[14]
  maximal culture density: 1.59
[15]
  maximal culture density: 0.289
[16]
  maximal culture density: 1.61
[17]
  maximal culture density: 1.58
[18]
  maximal culture density: 1.7
[19]
  maximal culture density: 1.59
[20]
  maximal culture density: 1.71
soa1 del [21]
  maximal culture density: 0.235
[22]
  maximal growth rate: 0.0178
[23]
  maximal growth rate: 0.00301
[24]
  maximal growth rate: 0.00382
[25]
  maximal growth rate: 0.00647
[26]
  maximal growth rate: 0.00369
[27]
  maximal growth rate: 0.00367
[28]
  maximal growth rate: 0.00489
[29]
  maximal growth rate: 0.00854
[30]
  maximal growth rate: 0.00374
[31]
  maximal growth rate: 0.00324
[32]
  maximal growth rate: 0.0519
[33]
  maximal growth rate: 0.0144
[34]
  maximal growth rate: 0.00421
[35]
  maximal growth rate: 0.0699
[36]
  maximal growth rate: 0.0049
[37]
  maximal growth rate: 0.0707
[38]
  maximal growth rate: 0.0612
[39]
  maximal growth rate: 0.0595
[40]
  maximal growth rate: 0.0659
[41]
  maximal growth rate: 0.0695
soa1 del [42]
  maximal growth rate: 0.00355

## NCCS(=O)(=O)O [Taurine]
[43]
  lag phase before growth: 7.77 h
[44]
  lag phase before growth: 9.53 h
[45]
  lag phase before growth: 7.75 h
[1]
  maximal culture density: 0.515
[2]
  maximal culture density: 0.187
[3]
  maximal culture density: 0.217
[4]
  maximal culture density: 0.311
[5]
  maximal culture density: 0.214
[6]
  maximal culture density: 0.215
[7]
  maximal culture density: 0.228
[8]
  maximal culture density: 0.305
[9]
  maximal culture density: 0.195
[10]
  maximal culture density: 0.219
[11]
  maximal culture density: 0.213
[12]
  maximal culture density: 0.498
[13]
  maximal culture density: 0.245
[14]
  maximal culture density: 1.6
[15]
  maximal culture density: 0.317
[16]
  maximal culture density: 1.4
[17]
  maximal culture density: 0.284
[18]
  maximal culture density: 0.258
[19]
  maximal culture density: 0.292
[20]
  maximal culture density: 0.828
soa1 del [21]
  maximal culture density: 0.217
[22]
  maximal growth rate: 0.0198
[23]
  maximal growth rate: 0.00281
[24]
  maximal growth rate: 0.00339
[25]
  maximal growth rate: 0.00581
[26]
  maximal growth rate: 0.00383
[27]
  maximal growth rate: 0.0038
[28]
  maximal growth rate: 0.00417
[29]
  maximal growth rate: 0.0063
[30]
  maximal growth rate: 0.00349
[31]
  maximal growth rate: 0.0033
[32]
  maximal growth rate: 0.00328
[33]
  maximal growth rate: 0.0141
[34]
  maximal growth rate: 0.00448
[35]
  maximal growth rate: 0.0523
[36]
  maximal growth rate: 0.0048
[37]
  maximal growth rate: 0.0291
[38]
  maximal growth rate: 0.00369
[39]
  maximal growth rate: 0.00328
[40]
  maximal growth rate: 0.00382
[41]
  maximal growth rate: 0.0111
soa1 del [42]
  maximal growth rate: 0.00366

Source: the supplement of paper PMC5303821, “Major sulfonate transporter Soa1 in Saccharomyces cerevisiae and considerable substrate diversity in its fungal family” (Nature Communications, 2017)
